Patent publication US20180118756A1, “COMPOSITIONS AND METHODS OF MODULATING SHORT-CHAIN DEHYDROGENASE ACTIVITY” (CASE WESTERN RESERVE UNIVERSITY, priority 2015, published 2018)
Converted amounts (≈) assume the structure as drawn. Like-named read-outs stand apart in the source and are kept apart here.

Tests used:
recombinant 15-PGDH = target: T1, recombinant 15-PGDH (Homo sapiens, UniProt P15428); assay: IC50 for inhibiting enzymatic activity of recombinant 15-PGDH in an in vitro assay; assay type: biochemical; conditions: recombinant human 15-PGDH at 5 nM, in vitro
T1 sequence (P15428 1-266): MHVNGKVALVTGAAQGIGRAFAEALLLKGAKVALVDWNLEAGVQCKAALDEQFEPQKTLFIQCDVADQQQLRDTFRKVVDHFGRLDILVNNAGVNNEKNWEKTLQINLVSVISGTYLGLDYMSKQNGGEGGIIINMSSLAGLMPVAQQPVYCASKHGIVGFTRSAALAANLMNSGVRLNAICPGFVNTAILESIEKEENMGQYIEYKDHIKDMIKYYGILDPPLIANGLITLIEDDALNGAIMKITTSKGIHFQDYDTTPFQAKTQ

[1] = aqueous solubility in pH 7 or pH 4 citrate buffer solution; assay type: physicochemical
[2] = Enzyme Inhibitor IC50 (nM) at 5 nM 15-PGDH
[3] = citrate buffer solution, pH 4, aqueous buffer, pH 4 citrate buffer solution, read-out: pH 4 solubility
[4] = citrate buffer solution, pH 7, aqueous buffer, pH 7 citrate buffer solution, read-out: pH 7 solubility
[5] = read-out: Enzyme Inhibitor IC50 (nM) at 5 nM 15-PGDH

Compound	solubility [1, 3] [µg/mL]	solubility [1, 4] [µg/mL]	further results
CCCC[S+]([O-])c1sc2nc(-c3nccs3)cc(-c3cncn3C)c2c1N (centres unmarked) [SW 217781, 2-(butylsulfinyl)-4-(1-methyl-1H-imidazol-5-yl)-6-(thiazol-2-yl)thieno[2,3-b]pyridin-3-amine]	71.8 (≈ 172 µM)	14 (≈ 33.5 µM)	IC50 (recombinant 15-PGDH; [2]): 1.9 nM
CCCC[S+]([O-])c1sc2nc(-c3nccs3)cc(-c3ccc(OCCO)cc3)c2c1N (centres unmarked) [SW 211688]	1180 (≈ 2490 µM)	115 (≈ 243 µM)	
CCCC[S+]([O-])c1sc2nc(-c3nccs3)cc(-c3ccc(C(C)O)cc3)c2c1N (centres unmarked) [SW 217778, 1-(4-(3-amino-2-(butylsulfinyl)-6-(thiazol-2-yl)thieno[2,3-b]pyridin-4-yl)phenyl)ethan-1-ol]		7.4 (≈ 16.2 µM)	IC50 (recombinant 15-PGDH; [2]): 2.2 nM
CC(C)[S+]([O-])c1sc2nc(-c3ncco3)cc(-c3ccccc3)c2c1N (centres unmarked) [SW 208660]		11.6 (≈ 30.2 µM)	IC50 (recombinant 15-PGDH; [5]): 2.86 nM
CCCC[S+]([O-])c1sc2nc(-c3nccs3)cc(-c3ccc(COC(=O)NCCCl)cc3)c2c1N (centres unmarked) [SW 213064, 4-(3-amino-2-(butylsulfinyl)-6-(thiazol-2-yl)thieno[2,3-b]pyridin-4-yl)benzyl (2-chloroethyl)carbamate]			IC50 (recombinant 15-PGDH; [2]): 5.9 nM; solubility ([1]; aqueous buffer, pH 7 citrate buffer solution, read-out: pH 7 solubility): 8.27 µg/mL (≈ 15.1 µM)
CCC[S+]([O-])c1sc2nc(-c3nccs3)cc(-c3nccn3C)c2c1N (centres unmarked) [SW 209280]	88 (≈ 218 µM)	17 (≈ 42.1 µM)	
CCCC[S+]([O-])c1sc2nc(-c3nccs3)cc(-c3cnc(C)n3C)c2c1N (centres unmarked) [SW 209415, 2-(butylsulfinyl)-4-(1,2-dimethyl-1H-imidazol-5-yl)-6-(thiazol-2-yl)thieno[2,3-b]pyridin-3-amine]	241 (≈ 558 µM)	54.3 (≈ 126 µM)	
COCC[S+]([O-])c1sc2nc(-c3nccs3)cc(-c3nccs3)c2c1N (centres unmarked) [SW 213156]		3.8 (≈ 8.99 µM)	IC50 (recombinant 15-PGDH; [2]): 5.7 nM
CCCC[S+]([O-])c1sc2nc(-c3nccs3)cc(-c3cnc(C)n3C)c2c1N (single isomer, unassigned; (+)) [(+)-(R)- SW 209415]			pH 7 solubility (μg/mL) ([1]; pH 7 citrate buffer solution): 2 μg/mL
CC(C)[S+]([O-])c1sc2nc(-c3nccs3)cc(-c3nccn3C)c2c1N (centres unmarked) [SW 209279]	73 (≈ 181 µM)	37.7 (≈ 93.4 µM)	
CCCC[S+]([O-])c1sc2nc(-c3nccs3)cc(-c3nccn3C)c2c1N (centres unmarked) [SW 209125]	31.6 (≈ 75.7 µM)		
CCCC[S+]([O-])c1sc2nc(-c3nccs3)cc(-c3cnc(C4CC4)n3C)c2c1N (single isomer, unassigned) [SW 212345]	164 (≈ 358 µM)	4 (≈ 8.74 µM)	
CCCC[S+]([O-])c1sc2nc(-c3nccs3)cc(-c3cccnc3)c2c1N (centres unmarked) [SW 208777]	3.8 (≈ 9.17 µM)	3.4 (≈ 8.2 µM)	
CC(C)[S+]([O-])c1sc2nc(-c3nccs3)cc(-c3ccccc3)c2c1N (centres unmarked) [SW 208780]		0.65 (≈ 1.63 µM)	IC50 (recombinant 15-PGDH; [5]): 5.55 nM
Cc1cc(-c2nccs2)nc2sc([S+]([O-])C(C)C)c(N)c12 (centres unmarked) [SW 208664]		9.7 (≈ 28.7 µM)	IC50 (recombinant 15-PGDH; [5]): 7.62 nM
CC(C)[S+]([O-])c1sc2nc(-c3nccs3)cc(-c3cccnc3)c2c1N (centres unmarked) [SW 208778]	26 (≈ 64.9 µM)	9.9 (≈ 24.7 µM)	
CCCC[S+]([O-])c1sc2nc(-c3nccs3)ccc2c1N (centres unmarked) [SW 206992]		4.76 (≈ 14.1 µM)	
CCCC[S+]([O-])c1sc2nc(-c3nccs3)cc(-c3ccc(OCCOC(=O)CCC(=O)O)cc3)c2c1N (centres unmarked) [SW 217999, 4-(2-(4-(3-amino-2-(butylsulfinyl)-6-(thiazol-2-yl)thieno[2,3-b]pyridin-4-yl)phenoxy)ethoxy)-4-oxobutanoic acid]		747 (≈ 1300 µM)	IC50 (recombinant 15-PGDH; [2]): 6.2 nM
CCCC[S+]([O-])c1sc2nc(-c3nccs3)cc(-c3cccc(CO)c3)c2c1N (centres unmarked) [SW 209418]		5.9 (≈ 13.3 µM)	
CCCC[S+]([O-])c1sc2nc(-c3ncco3)cc(-c3ccccc3)c2c1N (centres unmarked) [SW 208496]		2.2 (≈ 5.53 µM)	
CCCC[S+]([O-])c1sc2nc(-c3nc(C)cs3)cc(-c3cnc(C)n3C)c2c1N (centres unmarked) [SW 217779, 2-(butylsulfinyl)-4-(1,2-dimethyl-1H-imidazol-5-yl)-6-(4-methylthiazol-2-yl)thieno[2,3-b]pyridin-3-amine]	597 (≈ 1340 µM)	30.5 (≈ 68.4 µM)	
